Article PMC7835950 (Frontiers in Chemistry, 2021)
Where two headings read alike, the source gives them in different places.

Target: T1, OGDH (Rattus norvegicus, UniProt Q5XI78)
T1 sequence (Q5XI78 41-1023): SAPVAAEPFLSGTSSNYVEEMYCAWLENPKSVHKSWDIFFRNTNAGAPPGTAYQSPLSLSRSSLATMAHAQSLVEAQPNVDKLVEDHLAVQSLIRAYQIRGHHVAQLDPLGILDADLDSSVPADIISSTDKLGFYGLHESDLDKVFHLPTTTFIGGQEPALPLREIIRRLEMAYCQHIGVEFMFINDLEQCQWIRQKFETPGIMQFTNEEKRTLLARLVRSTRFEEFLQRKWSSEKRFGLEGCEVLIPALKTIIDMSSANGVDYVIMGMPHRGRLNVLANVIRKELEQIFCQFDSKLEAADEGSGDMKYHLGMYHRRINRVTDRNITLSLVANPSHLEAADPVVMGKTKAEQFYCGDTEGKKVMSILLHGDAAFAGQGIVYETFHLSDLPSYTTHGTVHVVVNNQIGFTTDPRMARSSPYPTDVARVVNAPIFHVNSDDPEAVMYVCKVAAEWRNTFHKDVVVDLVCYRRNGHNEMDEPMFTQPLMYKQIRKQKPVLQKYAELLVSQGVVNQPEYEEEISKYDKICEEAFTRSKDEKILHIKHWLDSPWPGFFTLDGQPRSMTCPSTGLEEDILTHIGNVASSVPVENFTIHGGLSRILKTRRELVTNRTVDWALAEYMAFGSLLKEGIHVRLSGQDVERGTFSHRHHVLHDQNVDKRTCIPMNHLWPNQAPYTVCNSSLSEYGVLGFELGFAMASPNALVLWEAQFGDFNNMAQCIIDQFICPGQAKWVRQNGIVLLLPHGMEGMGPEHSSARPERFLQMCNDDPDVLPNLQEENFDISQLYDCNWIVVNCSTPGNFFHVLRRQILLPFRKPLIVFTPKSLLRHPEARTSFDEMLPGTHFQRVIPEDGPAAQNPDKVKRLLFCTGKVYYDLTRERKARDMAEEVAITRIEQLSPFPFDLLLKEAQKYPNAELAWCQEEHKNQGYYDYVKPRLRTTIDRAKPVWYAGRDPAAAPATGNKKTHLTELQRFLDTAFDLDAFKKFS
T1 sequence (Q01205 69-454 partner): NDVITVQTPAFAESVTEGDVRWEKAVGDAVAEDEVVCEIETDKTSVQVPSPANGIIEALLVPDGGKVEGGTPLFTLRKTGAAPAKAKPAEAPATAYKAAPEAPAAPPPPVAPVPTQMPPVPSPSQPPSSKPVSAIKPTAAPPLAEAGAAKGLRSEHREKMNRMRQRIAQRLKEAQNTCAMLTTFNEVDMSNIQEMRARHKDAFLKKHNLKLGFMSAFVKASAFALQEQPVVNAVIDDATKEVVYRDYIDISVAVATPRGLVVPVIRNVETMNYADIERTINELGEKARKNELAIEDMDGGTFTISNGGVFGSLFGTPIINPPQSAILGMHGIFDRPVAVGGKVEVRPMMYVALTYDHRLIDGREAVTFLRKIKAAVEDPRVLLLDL
T1 sequence (Q6P6R2 36-509 partner): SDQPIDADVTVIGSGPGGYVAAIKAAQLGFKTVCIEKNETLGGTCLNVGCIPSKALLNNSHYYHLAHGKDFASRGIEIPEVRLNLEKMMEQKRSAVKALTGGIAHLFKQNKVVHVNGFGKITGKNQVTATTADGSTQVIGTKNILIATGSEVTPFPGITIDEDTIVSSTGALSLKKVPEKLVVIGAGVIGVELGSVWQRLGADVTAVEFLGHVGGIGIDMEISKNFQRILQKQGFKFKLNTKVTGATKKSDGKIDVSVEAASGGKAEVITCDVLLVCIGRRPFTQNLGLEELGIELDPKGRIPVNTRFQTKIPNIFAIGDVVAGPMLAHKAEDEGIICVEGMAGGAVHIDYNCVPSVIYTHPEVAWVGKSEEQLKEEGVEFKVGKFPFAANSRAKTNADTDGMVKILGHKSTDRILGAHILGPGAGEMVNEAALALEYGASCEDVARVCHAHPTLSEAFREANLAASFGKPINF
Test: OADH reaction (OA saturation) catalyzed by the enzyme preparation from rat heart
Format: biochemical
Parameters: the tissue fractions with the complexes enriched to a degree allowing for a robust detection of the enzymatic activities, have been used; from tissue; host or cells: rat heart
Conditions: for Ki / Amax: OADH reaction, heart
Procedure: Enzymes catalyzing OGDH and OADH reactions were enriched from rat hearts and livers using polyethylene glycol precipitation, as previously described (Artiukhov et al., [2020]).
The enzyme activities were assayed in the medium (pH 7.0) containing 50 mM MOPS, 1 mM ThDP, 1 mM MgCl2, 1 mM CaCl2, 1 mM dithiothreitol 0.15 mM Coenzyme A, 0.25 mM NAD^+ and various concentrations of 2-oxo substrates (0–10 mM OG or OA) and their phosphonate analogs (0–5,000 μM SP, GP, or AP). Reactions were started by addition of the enzyme preparations to the assay media. The amount of enzyme preparations (0.074 mg protein for the preparation from liver and 0.023 mg protein for the preparation from heart) were chosen to induce the lowest reliably measured reaction rate (ΔA340 = 0.001/min) at 0.01 mM OA without the phosphonates.
Reaction rates were calculated from linear parts of the product accumulation curves (up to 10 min, dependent on the reaction rate), excluding the initial region, where mixing the reagents and solubilization of the preparation affected the optical density.
Non-linear regression was used to approximate the experimental dependences of the reaction rates on the OG or OA concentration according to the Michaelis-Menten equation ( a=Amax*[S]/Km+[S] ) or its sum ( a=Amax*[S]/Km+[S]+Amax,2*[S]/Km,2+[S] ). The former equation describes one type of the active sites. […] The assumption was based on the presence of the two enzymes, OGDH and OADH, in the employed preparations.
The kinetic data were also analyzed by linear regression, using the known methods of the linearization of the Michaelis-Menten equation in the Lineweaver-Burk ( 1/a=1/Amax(1+Km/[S]) ) and Eadie-Hofstee ( a=Amax−Kmv/[S] ) coordinates. Due to the several orders of magnitude difference in the values of Km,1 and Km,2, the linear regression required separate analysis of the dependencies in the intervals of the low and high concentrations of 2-oxoadipate. The Km and Amax values obtained in independent experiments using the non-linear and linear regression analyses of the experimental data, were averaged and presented as Mean ± Standard Error of Mean.
To determine the inhibition constants (Ki), the effective values of Kmeff and Amaxeff , calculated from the hyperbolic or linear approximations as described above, were plotted against the concentration of the inhibitors ([I]). The linear regression of the equation Kmeff/Amaxeff=Km/Amax(1+[I]/Ki) , (Cornish-Bowden, [1979]) was applied to find the Intercept (Km/Amax) and Slope (Km/(Amax*Ki)) of a dependence. The values of Ki were determined as the ratio of the corresponding Intercepts to the Slopes. In the two-site model, the Ki(1) and Ki(2) were calculated separately from the linear approximations of Km,1eff/Amax,1eff vs. [I] and Km,2eff/Amax,2eff vs. [I] dependences, respectively. The standard errors of Ki were determined from means and standard errors of the Intercepts and the Slopes, using the previously described formula for standard deviation of a fraction (Bunik et al., [1999]). The Ki values obtained from the non-linear and linear regression analyses of the experimental data were averaged and presented as Mean ± Standard Error of Mean.

[1] = 0–10 mM OA, Michaelis-Menten, read-out: Ki, MM
[2] = Eadie-Hofstee, read-out: Ki, EH
[3] = Lineweaver-Burk, read-out: Ki, LB
[4] = average of MM, LB, EH, read-out: Ki, Average

Row | Amax, OA saturation (heart preparation) | SMILES | Ki [1] | Ki [2] | Ki [3] | Ki [4] | Amax ([I] 0.5 µM) | Amax ([I] 2 µM) | Amax ([I] 10 µM) | Amax ([I] 50 µM) | Amax ([I] 200 µM) | Amax ([I] 1000 µM)
1 |  | O=C(O)CCCCC(=O)P(=O)(O)O [AP, adipoyl phosphonate] | 49 ± 8 µM | 40 ± 7 µM | 58 ± 8 µM | 49 ± 5 µM | 0.101 ± 0.002 µmol/min per mg of protein | 0.096 ± 0.002 µmol/min per mg of protein | 0.098 ± 0.002 µmol/min per mg of protein | 0.109 ± 0.002 µmol/min per mg of protein | 0.116 ± 0.002 µmol/min per mg of protein | 
2 |  | O=C(O)CCCC(=O)P(=O)(O)O [GP, glutaryl phosphonate] | 3.8 ± 0.1 µM | 3.4 ± 0.5 µM | 1.1 ± 0.2 µM | 2.8 ± 0.8 µM |  | 0.105 ± 0.003 µmol/min per mg of protein | 0.131 ± 0.002 µmol/min per mg of protein | 0.139 ± 0.010 µmol/min per mg of protein | 0.103 ± 0.018 µmol/min per mg of protein | 
3 | 0.102 ± 0.008 μmol/min per mg of protein | O=C(O)CCCC(=O)C(=O)O [OA, 2-oxoadipate] |  |  |  |  |  |  |  |  |  | 
4 |  | O=C(O)CCC(=O)P(=O)(O)O [SP, succinyl phosphonate] | 10.2 ± 0.2 µM | 6.3 ± 0.1 µM | 4.7 ± 0.3 µM | 7.1 ± 1.6 µM |  |  | 0.109 ± 0.001 µmol/min per mg of protein | 0.109 ± 0.006 µmol/min per mg of protein | 0.106 ± 0.004 µmol/min per mg of protein | 0.075 ± 0.123 µmol/min per mg of protein
